Measurements: patent publication US20240425523A1, “Compounds for the Degradation of EGFR Kinase” (Beigene Switzerland GMBH, priority 2023, published 2024)

Legend:
Assay type in all cases: cell-based
[1] = molecular target: T1, EGFR L858R (BaF3-L858R cells) (Homo sapiens, UniProt P00533, L858R); assay: Cell degradation of EGFR, HTRF assay, BaF3-L858R cells; details: 16 h treatment; for DC50: EGFR degradation; for Dmax: maximum percentage of degradation
T1 construct: host or cells: BaF3
In short: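 BaF3-L858R cells treated 16 h at 37° C, 5% CO2 with compound (top 10 uM final, 5-fold, 8 doses, 0.1% DMSO). DC50 from four-parameter fit; Dmax is maximum percent degradation.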

[2] = molecular target: T2, p-EGFR L858R (BaF3-L858R cells) (Homo sapiens, UniProt P00533, L858R); assay: Cell p-EGFR inhibition assay, HTRF, BaF3-L858R cells; details: 16 h treatment; for Imax (%): maximum percentage of pEGFR inhibition; for IC50: pEGFR inhibition
T2 construct: host or cells: BaF3
In short: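 BaF3-L858R cells treated 16 h at 37 °C, 5% CO2 with compound from 10 uM top, 5-fold dilutions, 8 doses, in 0.1% DMSO medium. Lysates read overnight by HTRF p-EGFR antibodies; IC50 fitted to four-parameter curve against DMSO high control.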

[3] = molecular target: p-EGFR Del19/C797S (H1975-clone #23 cells) (Homo sapiens, UniProt P00533); assay: Cell p-EGFR inhibition assay, HTRF, H1975-clone#23 (DEL19/C797S) cells; details: 16 h treatment; for Imax (%): maximum percentage of pEGFR inhibition; for IC50: pEGFR inhibition
In short: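 Phospho-EGFR read by overnight HTRF on lysates, normalized to DMSO-treated high control; IC50, Hill slope and Imax fitted. Compounds were applied for 16 h (10 uM top, 5-fold steps, 8 doses) to an H1975 single clone carrying only exogenous Del19/C797S EGFR after sgRNA knockout of endogenous copies.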

[4] = molecular target: T3, EGFR-L858R/C797S (H1975-clone #8 cells) (Homo sapiens, UniProt P00533, C797S/L858R); assay: Cell degradation of EGFR, HTRF assay, H1975-clone#8 (L858R/C797S) cells; details: 16 h treatment; for DC50: EGFR degradation; for Dmax: maximum percentage of degradation
T3 construct: expressed in transfected cells; host or cells: H1975 (endogenous EGFR knocked out, clone #8)

Row | DC50 [1] [nM] | Dmax [1] [%] | Imax (%) [2] [%] | IC50 [2] [nM] | Imax (%) [3] [%] | IC50 [3] [nM] | DC50 [4] [nM] | Dmax [4] [%] | Structure (SMILES)
1 | 2.86 | 64.1 | 96.2 | 13.8 | 100.3 | 1.5 | 8.71 | 70.8 | COC[C@@H]1CN(c2cc3c(cc2F)N/C2=N\C(=O)c4cc(C)nc(c4)-c4cnn(C)c4OC[C@H]4CCC(C4)CN23)CCN1C1CCN(c2cc(F)c([C@H]3CCC(=O)NC3=O)c(F)c2)CC1 [Example 87, (R)-3-(2,6-difluoro-4-(4-((S)-4-((7^1R,7^3S,E)-5^5-fluoro-1^1,2^6-dimethyl-3-oxo-5^2,5^3-dihydro-1^1H,5^1H-9-oxa-4-aza-5(2,1)-benzo[d]imidazola-2(2,4)-pyridina-1(4,5)-pyrazola-7(1,3)-cyclopentanacyclononaphane-5^6-yl)-2-(methoxymethyl)piperazin-1-yl)piperidin-1-yl)phenyl)piperidine-2,6-dione]
2 | 16.4 | 95.8 | 108.3 | 6.1 | 100.7 | 3 | 1.63 | 82.9 | Cc1cc2cc(n1)-c1cnn(C)c1OC[C@H]1CCC(C1)CN1/C(=N/C2=O)Nc2ccc(N3CCN(C4CCN(c5ccc(OC6CCC(=O)NC6=O)cc5F)CC4)CC3)cc21 (stereo partly shown) [Example 88, 3-(4-(4-(4-((7^1R,7^3S,E)-1^1,2^6-dimethyl-3-oxo-5^2,5^3-dihydro-1^1H,5^1H-9-oxa-4-aza-5(2,1)-benzo[d]imidazola-2(2,4)-pyridina-1(4,5)-pyrazola-7(1,3)-cyclopentanacyclononaphane-5^6-yl)piperazin-1-yl)piperidin-1-yl)-3-fluorophenoxy)piperidine-2,6-dione]
3 | 1.75 | 73.9 | 99.7 | 8 | 101.2 | 1.9 | 1.64 | 87.5 | COC[C@@H]1CN(c2ccc3c(c2)N2C[C@@H]4CC[C@H](COc5c(c(C)nn5C)-c5cc(cc(C)n5)C(=O)/N=C/2N3)C4)CCN1C1CCN(c2cc(F)c(C3CCC(=O)NC3=O)nc2C)CC1 (stereo partly drawn) [Example 89, 3-(3-fluoro-5-(4-((S)-2-(methoxymethyl)-4-((7^1R,7^3S,E)-1^1,1^3,2^6-trimethyl-3-oxo-5^2,5^3-dihydro-1^1H,5^1H-9-oxa-4-aza-5(2,1)-benzo[d]imidazola-2(2,4)-pyridina-1(4,5)-pyrazola-7(1,3)-cyclopentanacyclononaphane-5^6-yl)piperazin-1-yl)piperidin-1-yl)-6-methylpyridin-2-yl)piperidine-2,6-dione]
4 | 3.21 | 80.6 | 98.4 | 6.3 | 101.7 | 2.5 | 2.06 | 87.4 | COC[C@H]1CN(c2ccc3c(c2)N2CC4CC[C@H](COc5c(c(C)nn5C)-c5cc(cc(C)n5)C(=O)/N=C/2N3)C4)CCN1C1CCN(c2cc(F)c(C3CCC(=O)NC3=O)nc2C)CC1 (stereo partly drawn) [Example 90, 3-(3-fluoro-5-(4-((R)-2-(methoxymethyl)-4-((7^1R,7^3S,E)-1^1,1^3,2^6-trimethyl-3-oxo-5^2,5^3-dihydro-1^1H,5^1H-9-oxa-4-aza-5(2,1)-benzo[d]imidazola-2(2,4)-pyridina-1(4,5)-pyrazola-7(1,3)-cyclopentanacyclononaphane-5^6-yl)piperazin-1-yl)piperidin-1-yl)-6-methylpyridin-2-yl)piperidine-2,6-dione]
5 | 2.04 | 81.5 | 97.1 | 3.5 | 100.8 | 2.2 | 2.28 | 88.7 | COC[C@H]1CN(c2ccc3c(c2)N2CC4CC[C@H](COc5c(c(C)nn5C)-c5cc(cc(C)n5)C(=O)/N=C/2N3)C4)CCN1C1CCN(c2cc(F)c([C@H]3CCC(=O)NC3=O)c(F)c2)CC1 [Example 91, (R)-3-(2,6-difluoro-4-(4-((R)-2-(methoxymethyl)-4-((7R,7^3S,E)-1^1,1^3,2^6-trimethyl-3-oxo-5^2,5^3-dihydro-1^1H,5^1H-9-oxa-4-aza-5(2,1)-benzo[d]imidazola-2(2,4)-pyridina-1(4,5)-pyrazola-7(1,3)-cyclopentanacyclononaphane-5^6-yl)piperazin-1-yl)piperidin-1-yl)phenyl)piperidine-2,6-dione]
6 | 1.97 | 85.8 | 97.2 | 10 | 100.1 | 1 | 3.12 | 79.8 | Cc1cc2cc(n1)-c1cnn(C)c1OC[C@H]1CCC(C1)CN1/C(=N/C2=O)Nc2ccc(N3CCN(C4CCN(c5c(F)cc(NC6CCC(=O)NC6=O)cc5F)CC4)CC3)cc21 (stereo partly shown) [Example 92, 3-((4-(4-(4-((7^1R,7^3S,E)-1^1,2^6-dimethyl-3-oxo-5^2,5^3-dihydro-1^1H,5^1H-9-oxa-4-aza-5(2,1)-benzo[d]imidazola-2(2,4)-pyridina-1(4,5)-pyrazola-7(1,3)-cyclopentanacyclononaphane-5^6-yl)piperazin-1-yl)piperidin-1-yl)-3,5-difluorophenyl)amino)piperidine-2,6-dione]
7 | 9.09 | 77.4 | 96.9 | 19.6 | 100.3 | 2 | 7.66 | 83.8 | COC[C@@H]1CN(c2ccc3c(c2)N2CC4CC[C@H](COc5c(cnn5C)-c5cc(cc(C)n5)C(=O)/N=C/2N3)C4)CCN1C1CCN(c2c(F)cc(NC3CCC(=O)NC3=O)cc2F)CC1 (stereo partly drawn) [Example 93, 3-((4-(4-((S)-4-((7^1R,7^3S,E)-1^1,2^6-dimethyl-3-oxo-5^2,5^3-dihydro-1^1H,5^1H-9-oxa-4-aza-5(2,1)-benzo[d]imidazola-2(2,4)-pyridina-1(4,5)-pyrazola-7(1,3)-cyclopentanacyclononaphane-5^6-yl)-2-(methoxymethyl)piperazin-1-yl)piperidin-1-yl)-3,5-difluorophenyl)amino)piperidine-2,6-dione]
8 | 3.37 | 71.6 | 99.6 | 6.1 | 101.2 | 0.8 | 0.83 | 73.9 | Cc1cc2cc(n1)-c1cnn(C)c1OC[C@H]1CCC(C1)CN1/C(=N/C2=O)Nc2ccc(N3CCN(C4CCN(c5cc(F)c([C@H]6CCC(=O)NC6=O)c(F)c5)CC4)C[C@@H]3CO)cc21 [Example 94, (R)-3-(4-(4-((R)-4-((7^1R,7^3S,E)-1^1,2^6-dimethyl-3-oxo-5^2,5^3-dihydro-1^1H,5^1H-9-oxa-4-aza-5(2,1)-benzo[d]imidazola-2(2,4)-pyridina-1(4,5)-pyrazola-7(1,3)-cyclopentanacyclononaphane-5^6-yl)-3-(hydroxymethyl)piperazin-1-yl)piperidin-1-yl)-2,6-difluorophenyl)piperidine-2,6-dione]
